Biological target: T1, HDAC7 (Homo sapiens, UniProt Q8WUI4)
T1 construct: purchased Eurofins (contracted assay service)
T1 sequence (Q8WUI4 1-952): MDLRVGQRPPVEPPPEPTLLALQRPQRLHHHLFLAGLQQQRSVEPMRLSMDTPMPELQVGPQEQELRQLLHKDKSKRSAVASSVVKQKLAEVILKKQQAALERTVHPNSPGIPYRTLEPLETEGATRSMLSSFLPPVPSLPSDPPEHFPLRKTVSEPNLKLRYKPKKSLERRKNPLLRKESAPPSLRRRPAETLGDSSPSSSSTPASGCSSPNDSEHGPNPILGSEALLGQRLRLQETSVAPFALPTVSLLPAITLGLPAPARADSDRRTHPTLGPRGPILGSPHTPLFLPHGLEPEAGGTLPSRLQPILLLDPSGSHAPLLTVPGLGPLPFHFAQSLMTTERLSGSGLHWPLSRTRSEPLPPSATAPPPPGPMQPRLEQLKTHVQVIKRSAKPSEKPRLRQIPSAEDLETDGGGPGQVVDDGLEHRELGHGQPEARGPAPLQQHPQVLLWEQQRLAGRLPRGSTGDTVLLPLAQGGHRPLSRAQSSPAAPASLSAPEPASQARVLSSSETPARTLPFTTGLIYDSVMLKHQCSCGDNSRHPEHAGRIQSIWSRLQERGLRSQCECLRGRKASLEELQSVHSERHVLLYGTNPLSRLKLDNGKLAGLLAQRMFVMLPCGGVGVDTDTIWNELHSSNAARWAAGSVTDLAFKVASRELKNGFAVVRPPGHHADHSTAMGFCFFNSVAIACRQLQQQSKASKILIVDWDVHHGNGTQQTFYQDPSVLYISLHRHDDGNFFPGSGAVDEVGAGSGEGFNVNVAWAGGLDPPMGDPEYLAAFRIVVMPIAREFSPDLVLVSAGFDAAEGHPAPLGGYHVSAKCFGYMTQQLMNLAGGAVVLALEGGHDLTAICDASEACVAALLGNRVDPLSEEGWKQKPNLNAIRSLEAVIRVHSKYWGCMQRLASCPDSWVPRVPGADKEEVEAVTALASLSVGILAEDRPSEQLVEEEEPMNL
Test: HDAC assay (Eurofins)
Type: biochemical

Compound `COc1cc2nc(-c3cc(C)oc3C)cc(NCC3CCN(c4ncc(C(=O)NO)cn4)CC3)c2cc1OC` [CM-1758, 2-[4-[[[2-(2,5-dimethyl-3-furyl)-6,7-dimethoxy-4-quinolyl]amino]methyl] -1-piperidyl]pyrimidine-5-carbohydroxamic acid] has an IC50 of 120 nM and an inhibition at 10 µM of 89%.

For `COc1cc2nc(-c3ccc(C)o3)cc(NCC3CCN(c4ncc(C(=O)NO)cn4)CC3)c2cc1OC` [CM-444, 2-[4-[[[6,7-dimethoxy-2-(5-methyl-2-furyl)-4-quinolyl]amino]methyl]-1-piperidyl]pyrimidine-5-carbohydroxamic acid], the IC50 was 120 nM and the inhibition at 10 µM was 89%.

From publication PMC11219871, “Epigenetic-based differentiation therapy for Acute Myeloid Leukemia” (Nature Communications, 2024)
